Measured values: PubChem BioAssay AID1963976 (Molecular Pharmacology Branch, DTP, NCI, 2024)
Where “and” joins values, the source holds several entries; their conditions need not be identical. Equal entries are not always repeated.

Tested on: 435261-313-R-J1-PDC tumor spheroid viability
Assay: Anticancer human tumor 435261-313-R-J1-PDC patient-derived colon adenocarcinoma cell line growth inhibition [PI3K]
Conditions: spheroids with HUVEC and MSC; for viability, T/C: stronger effect = lower value
Source text: Combinatorial screen of targeted agents with the PI3K inhibitors inavolisib, alpelisib, duvelisib, and copanlisib in multi-cell type tumor spheroids
A high-throughput screen of multi-cell type tumor spheroids was designed to identify active combinations of targeted small molecules and PI3K pathway inhibitors. Complex spheroids include a stromal component modeled by human endothelial cells (HUVEC) and fibroblasts modeled by human mesenchymal stem cells (MSCs). The concentration ranges selected for each drug and investigational agent were based upon clinically achievable concentrations if the clinical Cmax of the agent was known.
Compounds. The drugs and investigational agents: inavolisib (NSC800729), alpelisib (NSC765974), duvelisib (NSC772469), copanlisib (NSC816437), ipatasertib (NSC767898), afuresertib (NSC778305), talazoparib (NSC767125), sapanisertib (NSC764658), selumetinib (NSC741078), tovorafenib (DAY101, NSC766906), vemurafenib (NSC761431), ravoxertinib (NSC781343), sotorasib (NSC818433), MRTX1133 (NSC 836407), abemaciclib (NSC 768073), palbociclib (NSC758247), venetoclax (NSC 766270), SY5609 (NSC837396), enzalutamide (NSC755605), and darolutamide (NSC825331), were obtained from the National Cancer Institute (NCI) Developmental Therapeutics Program Chemical Repository. The FDA-approved anticancer drug set is available from the NCI Developmental Therapeutics Program. […] The stock solutions were prepared in dimethyl sulfoxide (DMSO, Sigma-Aldrich, St. Louis, MO, cat. D2650) at 800-fold the tested concentration and stored at -70 degrees C prior to their use. All drugs and investigational agents were tested over a range starting from a high concentration at or near the clinical Cmax and decreasing in half-log increments. If the clinical Cmax for an agent had not been determined, the highest concentration tested was 10 microM.
Cell Culture. All cells were maintained in an incubator at 37 degrees C and 5% CO2 with 95% humidity. The PDC lines were cultured according to standard operating procedures established by the NCI PDMR (https://pdmr.cancer.gov/sops/default.htm). All PDCs were thawed and cultured in Matrigel-coated flasks prepared with a working solution of 1X Ham's F-12 nutrient mix, without supplementation (Invitrogen, Waltham, MA, cat. 11765054), 100 U/mL penicillin-streptomycin (Invitrogen, cat. 15140122), and 2.5% Matrigel (Corning Inc., Corning, NY, cat. 354248) for the first three passages. The 354836-022-R-J1-PDC, 475296-252-R-J1-PDC, and 997726-040-R-J2-PDC lines were cultured in 6A media, which includes advanced DMEM/F-12 (Thermo Fisher Scientific, cat. 12634028), 10 mM HEPES (Thermo Fisher Scientific, cat. 15630080), 1X GlutaMAX supplement (Thermo Fisher Scientific, cat. 35050061), 0.1 mg/mL primocin (InvivoGen, San Diego, CA, cat. ant-pm-2), 10% defined fetal bovine serum, heat inactivated (HyClone Laboratories Inc., Logan, UT, cat. SH30070.03HI), 50% L-WRN conditioned media (ATCC, cat. CRL-3276), 1.25 mM N-Acetyl-L-cysteine (Sigma-Aldrich, cat. A9165), 10 mM nicotinamide (Sigma-Aldrich, cat. N0636), 1X B-27 supplement (Thermo Fisher Scientific, cat. 17504044), 1X N-2 supplement (Thermo Fisher Scientific, cat. 17502048), and 10 microM Y-27632 dihydrochloride (Tocris Bioscience, Bristol, United Kingdom, cat. 1254). The 624824-186-R-J2-PDC line was cultured in 6C/Colon 1B media, which includes all 6A media components plus 50 ng/mL human EGF recombinant protein (Thermo Fisher Scientific, cat. PHG0311). […]
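Note: spheroids exposed to compounds for 7 days.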

Structure (SMILES) | viability, T/C (compound 0.0316 µM) | viability, T/C (compound 0.1 µM) | viability, T/C (compound 0.316 µM) | viability, T/C (compound 1 µM) | viability, T/C (compound 3.16 µM) | viability, T/C (compound 10 µM) | IC50 (curve of compound) | also measured
C#Cc1c(F)ccc2cc(O)cc(-c3ncc4c(N5CC6CCC(C5)N6)nc(OCC56CCCN5CC(F)C6)nc4c3F)c12 (stereo not given) | 89.8% and 97.7% and 83.1% | 91.7% and 82.7% and 95.5% | 124% and 84% and 113% | 95.2% and 62.6% and 64% | 61.5% and 78.3% and 73.5% | 36.6% and 30.7% and 31.1% | 5.36 µM and 5.46 µM and 5.56 µM | 
C=CC(=O)N1CCN(c2nc(=O)n(-c3c(C)ccnc3C(C)C)c3nc(-c4c(O)cccc4F)c(F)cc23)C(C)C1 (stereo not given) | 92% [middle of 4 runs] |  | 109% [middle of 4 runs] |  | 137% and 124% (2×) and 123% | 109% [middle of 4 runs] | > 10 µM | 
CC(=O)c1c(C)c2cnc(Nc3ccc(N4CCNCC4)cn3)nc2n(C2CCCC2)c1=O | 99.9% and 90.4% and 103% | 68.8% and 77.6% and 68.9% |  |  |  |  | > 0.1 µM | viability, T/C (compound 0.000316 µM): 69.4% and 92% and 91.1%; viability, T/C (compound 0.001 µM): 92.5% and 97.7% and 88.2%; viability, T/C (compound 0.00316 µM): 86.3% and 105% and 87%; viability, T/C (compound 0.01 µM): 105% and 93.1% and 75.4%
CC(C)NCC(C(=O)N1CCN(c2ncnc3c2C(C)CC3O)CC1)c1ccc(Cl)cc1 (stereo not given) | 76.4% and 94.8% and 95.1% | 90.5% and 77% and 73.2% | 95.1% and 85.8% and 97.9% | 57.7% and 48.9% and 79% | 58.6% and 52.4% and 76.3% | 20.2% and 36.6% and 29% | 3.56 µM and 0.965 µM and 5.92 µM | 
CC(C)n1nc(-c2ccc3oc(N)nc3c2)c2c(N)ncnc21 | 60.8% and 46.7% | 18.7% and 12.7% |  |  |  |  | 0.038 µM and 0.0144 µM | viability, T/C (compound 0.000316 µM): 75.7% and 66.3%; viability, T/C (compound 0.001 µM): 119% and 65.3%; viability, T/C (compound 0.00316 µM): 86.6% and 58.6%; viability, T/C (compound 0.01 µM): 67.3% and 48.3%
CC(Cn1ccc(-c2ccc(C#N)c(Cl)c2)n1)NC(=O)c1cc(C(C)O)[nH]n1 (stereo not given) | 97.2% and 88.6% and 70.7% | 108% and 96.9% and 109% | 130% and 117% and 107% | 79.9% and 113% and 70.2% | 110% and 105% and 108% | 120% and 102% and 99.3% | > 10 µM | 
CC(Nc1ccc2c(c1)OCCn1cc(N3C(=O)OCC3C(F)F)nc1-2)C(N)=O (stereo not given) |  | 31.2% [middle of 7 runs] | 23.1% [middle of 7 runs] | 20.4% [middle of 7 runs] |  |  |  | 
CC(Nc1ncnc2nc[nH]c12)c1cc2cccc(Cl)c2c(=O)n1-c1ccccc1 (stereo not given) |  |  |  | 77.1% [middle of 7 runs] | 70.9% [middle of 7 runs] |  |  | 
CC1(C)CCC(CN2CCN(c3ccc(C(=O)NS(=O)(=O)c4ccc(NCC5CCOCC5)c([N+](=O)[O-])c4)c(Oc4cnc5[nH]ccc5c4)c3)CC2)=C(c2ccc(Cl)cc2)C1 |  |  |  |  | 107% [middle of 4 runs] |  |  | 
CC1(C)CCC(Nc2ncc(C(F)(F)F)c(-c3c[nH]c4c(P(C)(C)=O)c(C#N)ccc34)n2)CN1 (stereo not given) | 68.8% [middle of 4 runs] | 59.7% [middle of 4 runs] |  | 54.3% [middle of 4 runs] | 51.3% [middle of 4 runs] | 1.48% [middle of 4 runs] |  | 
CCCS(=O)(=O)Nc1ccc(F)c(C(=O)c2c[nH]c3ncc(-c4ccc(Cl)cc4)cc23)c1F | 77% and 97.8% | 91% and 84.7% | 110% and 111% | 120% and 96.2% | 88.7% and 98.1% | 5.61% and 4.11% | 5.4 µM and 5.68 µM | 
CCN1CCN(Cc2ccc(Nc3ncc(F)c(-c4cc(F)c5nc(C)n(C(C)C)c5c4)n3)nc2)CC1 | 61.7% and 67.7% and 78.4% | 48.9% and 58.6% and 55.6% | 47.7% and 44.3% and 50.4% | 40.8% and 56.3% and 51.8% |  |  |  | viability, T/C (compound 0.00316 µM): 78.8% and 104% and 106%; viability, T/C (compound 0.01 µM): 94.5% and 76.5% and 82.8%
CNC(=O)c1ccc(N2C(=S)N(c3ccc(C#N)c(C(F)(F)F)c3)C(=O)C2(C)C)cc1F |  |  |  |  | 106% [middle of 4 runs] |  | > 10 µM | 
COc1c(OCCCN2CCOCC2)ccc2c3n(c(=NC(=O)c4cnc(N)nc4)nc12)CCN3 | 29% [middle of 6 runs] | 15.8% [middle of 6 runs] | 8.17% [middle of 6 runs] | 4.83% [middle of 6 runs] |  |  |  | IC50 (compound alone, run of 06/13/2023): 13.3 nM [middle of 6 runs]
C[C@@H](NC(=O)c1ncnc(N)c1Cl)c1ncc(C(=O)Nc2cc(C(F)(F)F)c(Cl)cn2)s1 | 133% and 131% and 118% | 127% and 106% and 111% | 154% and 79.3% and 153% | 151% and 130% and 124% | 146% and 120% and 129% | 120% and 114% and 88.1% | > 10 µM | 
Cc1nc(NC(=O)N2CCCC2C(N)=O)sc1-c1ccnc(C(C)(C)C(F)(F)F)c1 (stereo not given) |  | 82.1% [middle of 6 runs] | 64.4% [middle of 6 runs] | 27.3% [middle of 6 runs] | 17.2% [middle of 6 runs] | 7% [middle of 6 runs] |  | IC50 (compound alone, run of 06/12/2023): 447 nM [middle of 6 runs]
Cn1cnc2c(F)c(Nc3ccc(Br)cc3Cl)c(C(=O)NOCCO)cc21 |  |  |  |  |  |  | < 0.00949 µM | viability, T/C (compound 0.00949 µM): 33.8% and 34.9% and 45.8%; viability, T/C (compound 0.03 µM): 32.3% and 27.6% and 36%; viability, T/C (compound 0.0949 µM): 12.5% and 23.4% and 29.8%; viability, T/C (compound 0.3 µM): 30.7% and 22.9% and 24.5%; viability, T/C (compound 0.949 µM): 16.1% and 18.4% and 20.9%; viability, T/C (compound 3 µM): 9.65% and 10.9% and 16.8%
Cn1ncc(Cl)c1-c1cc(C(=O)NC(CN)Cc2cccc(F)c2)sc1Cl (stereo not given) | 104% and 107% and 76.9% | 82.6% and 66.1% and 92.1% | 70.9% and 90.8% and 66.1% | 26.1% and 32.2% and 54.4% | 20.6% and 20.1% and 23.6% | 8.15% and 8% and 9.52% | 0.641 µM and 0.571 µM and 0.978 µM | 
Cn1nccc1Nc1nccc(-c2ccn(C(CO)c3ccc(Cl)c(F)c3)c(=O)c2)n1 (stereo not given) |  |  | 68.2% [middle of 4 runs] | 45.7% [middle of 4 runs] | 30.4% [middle of 4 runs] | 18.4% [middle of 4 runs] |  | 
Cn1ncnc1[C@H]1c2n[nH]c(=O)c3cc(F)cc(c23)N[C@@H]1c1ccc(F)cc1 |  | 62.6% [middle of 4 runs] |  |  |  |  | > 0.1 µM | viability, T/C (compound 0.00316 µM): 93.3% and 79.8% (2×) and 89.1%
